Patent US20220389003A1, “4-SUBSTITUTED INDOLE AND INDAZOLE SULFONAMIDO DERIVATIVES AS PARG INHIBITORS” (IDEAYA BIOSCIENCES, INC., priority 2019, published 2022)
Where two headings read alike, the source gives them in different places.

Legend:
PARG [1] = target: T1, PARG (Homo sapiens, UniProt Q86W56); assay: Inhibition of PARG cellular assay (PAR foci in HeLa cells after MMS); format: cell-based; parameters: endogenous in cells; host or cells: HeLa; details: compound 1 h then MMS 1 h
Method: The ability of the compounds disclosed herein to inhibit PARG was determined as described below. Briefly, after treating HeLa cells with the compounds of the disclosure for 1 h, followed by treatment with DNA alkylating agent methylmethanesulfonate (MMS) for an additional 1 h, the cells were fixed in 3.7% formaldehyde. The cells were permeabilized in 0.5% Triton-X100, blocked in 5% goat serum, and incubated with mouse monoclonal antibody against poly (ADP) ribose (PAR) polymer overnight at 4° C. The cells were washed and incubated with an Alexafluor 488-linked secondary antibody together with a nuclear stain (Hoechst 33342) for an hour at room temperature. After washing, images of the cells were captured and analyzed on a high content imaging microscope and software. Two measurement of PAR chain were quantified with the mean intensity over background of the nuclear foci (fluorescent signal at 488 nm range 0.3-2.0 μm foci) quantified as PAR foci (PAR Foci IC50). The cells with a PAR foci signal >1.3 was considered as positive (PAR % positive IC50), and the percentage positive cells are quantified.

[2] = system: HCC1806-XRCC1 KD (knock down) cells; assay: Cellular viability assay (Cell Titer-Glo); format: cell-based; details: HCC1806-shXRCC1 cells, 4 days of incubation, read-out: PARGi cell viability
Method: HCC1806-XRCC1 KD (knock down) cells were plated at 2000 cells/well in 96-well white plates with clear flat bottom. After 24 hours, the compounds of the disclosure were added starting at 30 μM for a 9-point dose response curve at 1:3 dilution. The compounds of the disclosure were added by Tecan digital dispenser excluding the outermost wells of the plate. All treatments were done in duplicates. After 4 days of incubation, 50 ul of Cell Titer-Glo (Promega) was added per well. After incubation with the reagent for 15 minutes, luminescence was read using a plate reader (TECAN). Average values of DMSO treated wells in a plate was calculated. All data points were normalized to that of the average DMSO value. The % of control for each sample compared to DMSO treated control samples. Curves are fit as % of control vs. log [compound concentration] using a 4 parameter inhibition model (Levenberg-Marquardt algorithm):
Fit=(A+((B−A)/(1+((C/x)^D))))

PARG [3] = target: T1, PARG; assay: Inhibition of PARG enzymatic assay (TR-FRET enzymatic IC50 assay); format: biochemical; parameters: purchased Peak Proteins; details: hPARG 250 pM, biotinylated-PARylated PARP substrate 30 nM
Method: PARG enzyme was incubated with compound or vehicle (DMSO) and the biotinylated-PARylated PARP substrate in a microtiter plate. After adding detection antibody and streptavidin-europium, and then incubating, the plate was read for fluorescence intensity. The low control (DMSO) with low fluorescence intensity represents no inhibition of enzymatic reaction while the high control (no enzyme) with high fluorescence intensity represents full inhibition of enzymatic reaction.
• PARG • hPARG: 250 pM, His-tagged, Peak Proteins, 0.96 mg/mL (8.58 μM) • Substrate: 30 nM • Reaction time: 70 minutes • Substrate: hPARP1, His- and TEV-tagged, Peak Proteins, 14 μM • Detection Antibody: anti-His monoclonal antibody-ULight, Perkin Elmer catalog #TRF0105-M • Streptavidin-Europium: Perkin Elmer catalog #AD0062 • Assay buffer: 50 mM Tris-HCl pH 7.4, 50 mM KCl, 3 mM EDTA, 0.4 mM EGTA, 1 mM DTT, 0.01% Tween 20, 0.01% BSA • Temperature: 23° C. • Total volume: 20 μL
• 0% inhibition control: DMSO • 100% inhibition control: No enzyme
• 1. Transfer 5 μL of 3× final concentration of test compounds or DMSO to the appropriate wells of a microtiter plate. • 2. Centrifuge the plate at 1000 rpm for 1 minute. • 3. Transfer 5 μL of 3× final concentration of enzyme in assay buffer or assay buffer alone to the appropriate wells. • 4. Centrifuge the plate at 1000 rpm for 1 minute. • 5. Incubate the plate at room temperature for 1 hour. • 6. Transfer 5 μL of 3× substrate in assay buffer to all the test wells. • 7. Centrifuge the plate at 1000 rpm for 1 minute. • 8. Incubate the plate at room temperature for 10 minutes. • 9. Transfer 5 μL of 3× mixture of detection antibody and streptavidin-europium in assay buffer to all the test wells. • 10. Centrifuge the plate at 1000 rpm for 1 minute. • 11. Incubate the plate at room temperature for 1 hour. • 12. Read the plate on a plate reader (e.g., Infinite M1000).

T1 sequence (Q86W56 whole entry): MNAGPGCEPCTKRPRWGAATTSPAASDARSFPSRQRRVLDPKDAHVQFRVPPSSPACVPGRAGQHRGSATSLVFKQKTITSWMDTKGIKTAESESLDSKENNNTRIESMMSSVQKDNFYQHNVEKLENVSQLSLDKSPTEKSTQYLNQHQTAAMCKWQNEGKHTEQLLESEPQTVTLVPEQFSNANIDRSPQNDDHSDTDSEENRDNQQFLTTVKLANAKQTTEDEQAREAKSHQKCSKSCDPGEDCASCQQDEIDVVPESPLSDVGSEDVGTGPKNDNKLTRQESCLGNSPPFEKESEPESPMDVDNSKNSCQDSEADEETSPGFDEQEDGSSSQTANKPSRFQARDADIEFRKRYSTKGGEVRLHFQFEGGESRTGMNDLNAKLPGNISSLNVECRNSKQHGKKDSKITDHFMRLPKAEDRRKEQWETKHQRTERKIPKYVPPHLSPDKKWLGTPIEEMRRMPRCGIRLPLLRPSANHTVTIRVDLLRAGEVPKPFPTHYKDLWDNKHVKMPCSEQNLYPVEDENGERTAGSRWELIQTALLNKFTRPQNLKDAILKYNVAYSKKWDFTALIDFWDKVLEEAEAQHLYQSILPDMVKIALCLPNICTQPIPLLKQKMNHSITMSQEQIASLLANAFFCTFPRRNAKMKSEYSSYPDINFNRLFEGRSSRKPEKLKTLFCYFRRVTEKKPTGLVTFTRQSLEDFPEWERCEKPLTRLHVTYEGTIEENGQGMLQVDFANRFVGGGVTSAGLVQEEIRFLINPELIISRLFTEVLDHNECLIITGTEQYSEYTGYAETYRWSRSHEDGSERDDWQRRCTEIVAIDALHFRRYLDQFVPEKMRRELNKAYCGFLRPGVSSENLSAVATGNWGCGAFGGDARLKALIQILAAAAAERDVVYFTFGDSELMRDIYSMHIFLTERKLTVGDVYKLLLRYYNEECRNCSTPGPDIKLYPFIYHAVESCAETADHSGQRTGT

Structure (SMILES)	IC50 (PARG [1]) [µM]	IC50 ([2]; 96 h) [µM]	IC50 (PARG [3]) [µM]	IC50 [2] [µM]
CN1CC2CN(c3cc(S(=O)(=O)NC4(C#N)CC4)cc4c3cnn4-c3nnc(C(F)F)s3)CCN2C1=O (single isomer, unassigned) [Example 71, 1-[({4-(8-methyl-7-oxo-3,6,8-triazabicyclo[4.3.0]non-3-yl)-1-[5-(difluoromethyl)-(1,3,4-thiadiazol-2-yl)]-1H-indazol-6-yl}sulfonyl)amino]cyclopropane carbonitrile]	0.1 to 0.3	1 to 10	≤ 0.1	–
CN1CC2CN(c3cc(S(=O)(=O)NC4(C#N)CC4)cc4c3cnn4-c3nnc(C(F)F)s3)CCN2C1=O (single isomer, unassigned) [Example 72, 1-[({4-(8-methyl-7-oxo-3,6,8-triazabicyclo[4.3.0]non-3-yl)-1-[5-(difluoromethyl)-(1,3,4-thiadiazol-2-yl)]-1H-indazol-6-yl}sulfonyl)amino]cyclopropane carbonitrile]	0.1 to 0.3	–	≤ 0.1	1 to 10
N#CC1(NS(=O)(=O)c2cc(-c3ccccc3)c3cnn(-c4nnc(C(F)F)s4)c3c2)CC1 [Example 1, 1-[({1-[5-(difluoromethyl)(1,3,4-thiadiazol-2-yl)]-4-phenyl-1H-indazol-6-yl}sulfonyl)amino]cyclopropanecarbonitrile]	1 to 10	20 to 30	1 to 10	–
Cn1cc(-c2cc(S(=O)(=O)NC3(C#N)CC3)cc3c2cnn3-c2nnc(C(F)F)s2)ccc1=O [Example 5, N-(1-cyanocyclopropyl)-1-(5-(difluoromethyl)-1,3,4-thiadiazol-2-yl)-4-(1-methyl-6-oxo-1,6-dihydropyridin-3-yl)-1H-indazole-6-sulfonamide]	0.3 to 1	20 to 30	≤ 0.1	–
N#CC1(NS(=O)(=O)c2cc(C3CC3)c3cnn(-c4nnc(C(F)F)s4)c3c2)CC1 [Example 6, 1-[({1-[5-(difluoromethyl)(1,3,4-thiadiazol-2-yl)]-4-cyclopropyl-1H-indazol-6-yl}sulfonyl)amino]cyclopropanecarbonitrile]	1 to 10	20 to 30	1 to 10	–
N#CC1(NS(=O)(=O)c2cc(C3=CCC4(CC3)COC4)c3cnn(-c4nnc(C(F)F)s4)c3c2)CC1 [Example 7, 1-[({1-[5-(difluoromethyl)(1,3,4-thiadiazol-2-yl)]-4-(2-oxaspiro[3.5]non-6-en-7-yl)-1H-indazol-6-yl}sulfonyl)amino]cyclopropanecarbonitrile]	0.3 to 1	1 to 10	0.3 to 1	–
N#CC1(NS(=O)(=O)c2cc(C3CCC4(CC3)COC4)c3cnn(-c4nnc(C(F)F)s4)c3c2)CC1 [Example 8, 1-[({1-[5-(difluoromethyl)(1,3,4-thiadiazol-2-yl)]-4-(2-oxaspiro[3.5]non-7-yl)-1H-indazol-6-yl}sulfonyl)amino]cyclopropanecarbonitrile]	≤ 0.1	1 to 10	0.1 to 0.3	–
N#CC1(NS(=O)(=O)c2cc(-c3ccccn3)c3cnn(-c4nnc(C(F)F)s4)c3c2)CC1 [Example 14, 1-[({1-[5-(difluoromethyl)(1,3,4-thiadiazol-2-yl)]-4-(2-pyridyl)-1H-indazol-6-yl}sulfonyl)amino]cyclopropanecarbonitrile]	1 to 10	10 to 20	0.3 to 1	–
N#CC1(NS(=O)(=O)c2cc(-c3ccncn3)c3cnn(-c4nnc(C(F)F)s4)c3c2)CC1 [Example 15, 1-[({1-[5-(difluoromethyl)(1,3,4-thiadiazol-2-yl)]-4-pyrimidin-4-yl-1H-indazol-6-yl}sulfonyl)amino]cyclopropanecarbonitrile]	0.3 to 1	1 to 10	≤ 0.1	–
COc1nccc(-c2cc(S(=O)(=O)NC3(C#N)CC3)cc3c2cnn3-c2nnc(C(F)F)s2)n1 [Example 21, 1-[({1-[5-(difluoromethyl)(1,3,4-thiadiazol-2-yl)]-4-(2-methoxypyrimidin-4-yl)-1H-indazol-6-yl}sulfonyl)amino]cyclopropanecarbonitrile]	0.3 to 1	1 to 10	0.1 to 0.3	–
CC1(NS(=O)(=O)c2cc(N3CCC4(CC3)COC4)c3cnn(-c4nnc(C(F)F)s4)c3c2)CC1 [Example 23, ({1-[5-(difluoromethyl)(1,3,4-thiadiazol-2-yl)]-4-(2-oxa-7-azaspiro[3.5]non-7-yl)(1H-indazol-6-yl)}sulfonyl)(methylcyclopropyl)amine]	≤ 0.1	< 1	≤ 0.1	–
CN(C)C(=O)N1CCN(c2cc(S(=O)(=O)NC3(C)CC3)cc3c2cnn3-c2nnc(C(F)F)s2)CC1 [Example 24, [4-(1-[5-(difluoromethyl)(1,3,4-thiadiazol-2-yl)]-6-{[(methylcyclopropyl)amino]sulfonyl}(1H-indazol-4-yl))piperazinyl]-N,N-dimethylcarboxamide]	≤ 0.1	< 1	≤ 0.1	–
N#CC1(NS(=O)(=O)c2cc(N3CCC4(CC3)COC4)c3cnn(-c4nnc(C(F)F)s4)c3c2)CC1 [Example 25, 1-[({1-[5-(difluoromethyl)(1,3,4-thiadiazol-2-yl)]-4-(2-oxa-7-azaspiro[3.5]non-7-yl)-1H-indazol-6-yl}sulfonyl)amino]cyclopropanecarbonitrile]	≤ 0.1	< 1	≤ 0.1	–
C[C@@H]1CN(c2cc(S(=O)(=O)NC3(C#N)CC3)cc3c2cnn3-c2nnc(C(F)F)s2)CCO1 [Example 26, 1-[({4-((2R)-2-methylmorpholin-4-yl)-1-[5-(difluoromethyl)(1,3,4-thiadiazol-2-yl)]-1H-indazol-6-yl}sulfonyl)amino]cyclopropanecarbonitrile]	0.1 to 0.3	1 to 10	≤ 0.1	–
CC(C)C(=O)N1[C@@H]2CC[C@H]1CN(c1cc(S(=O)(=O)NC3(C#N)CC3)cc3c1cnn3-c1nnc(C(F)F)s1)C2 [Example 37, 1-[({4-[(1S,5R)-8-(2-methylpropanoyl)-3,8-diazabicyclo[3.2.1]oct-3-yl]-1-[5-(difluoromethyl)(1,3,4-thiadiazol-2-yl)]-1H-indazol-6-yl}sulfonyl)amino]cyclopropane carbonitrile]	≤ 0.1	1 to 10	–	–
N#CC1(NS(=O)(=O)c2cc(N3CCN(C=O)CC3)c3cnn(-c4nnc(C(F)F)s4)c3c2)CC1 [Example 49, 1-[({1-[5-(difluoromethyl)(1,3,4-thiadiazol-2-yl)]-4-(4-formylpiperazinyl)-1H-indazol-6-yl}sulfonyl)amino]cyclopropanecarbonitrile]	0.3 to 1	1 to 10	–	–
N#CC1(NS(=O)(=O)c2cc(N3CCN(C(=O)C4CCC4)CC3)c3cnn(-c4nnc(C(F)F)s4)c3c2)CC1 [Example 81, 1-[({1-[5-(difluoromethyl)(1,3,4-thiadiazol-2-yl)]-4-[4-(cyclobutylcarbonyl)piperazinyl]-1H-indazol-6-yl}sulfonyl)amino]cyclopropanecarbonitrile]	≤ 0.1	< 1	–	–
